Usually IC50 stands for the midpoint of a concentration-inhibition curve. Usually EC50 stands for the concentration needed to bring the measured effect to its halfway point.

Each structure is given as a SMILES string. Values after ≈ are worked out from the molar mass of the structure shown.

Format in all cases: functional, organism-based
In test [1] the test system is Plasmodium falciparum. In words: Antimalarial activity against Plasmodium falciparum.
Test [2] relates to Plasmodium falciparum. Kind of test: Antimalarial activity against Plasmodium falciparum assessed as parasite growth inhibition incubated for 36 to 40 hrs by JSB staining based analysis.
The test system of test [3] is Plasmodium falciparum. Kind of test: Antimalarial activity against Plasmodium falciparum K1 infected in A+ human erythrocytes assessed as reduction in parasite growth incubated for 72 hrs by SYBR Green I staining based analysis. To be noted: K1, Erythrocyte.
In test [4] the test system is Plasmodium falciparum. In words: Antimalarial activity against Plasmodium falciparum Dd2 infected in A+ human erythrocytes assessed as reduction in parasite growth incubated for 72 hrs by SYBR Green I staining based analysis. To be noted: Dd2, Erythrocyte.
The test system of test [5] is Plasmodium falciparum. In words: Antimalarial activity against Plasmodium falciparum 3D7 infected in A+ human erythrocytes assessed as reduction in parasite growth incubated for 72 hrs by SYBR Green I staining based analysis. To be noted: 3D7, Erythrocyte.
The test system of test [6] is Plasmodium falciparum. Kind of test: Antiplasmodial activity against CQ-sensitive Plasmodium falciparum NF54.

With `CC1=C(C(=O)Nc2ccccc2C)C(c2ccc(OCc3cn(Cc4ccccc4)nn3)cc2)n2c(nc3ccccc32)N1` (configuration not stated), half-maximal inhibition in the test with Plasmodium falciparum [1] (IC50) required 1530 nM. In the case of `O=c1cc(OCc2cn(-c3ccc(OCc4cccc([N+](=O)[O-])c4)cc3)nn2)c2ccccc2o1`, the concentration for half-maximal inhibition (IC50) in the test on Plasmodium falciparum [2] amounted to 0.6 µg/mL (≈ 1.28 µM).

Regarding `CCCCc1nc(C)c2ccc(-c3cn(CCOC(=O)CCC(=O)O[C@@H]4O[C@@H]5O[C@@]6(C)CC[C@H]7[C@H](C)CC[C@@H]([C@H]4C)[C@@]57OO6)nn3)cc2c1CCCC`, the 50% effective concentration (EC50) was 4.2 nM in the test on Plasmodium falciparum [3], 10 nM in the test on Plasmodium falciparum [4] and 9.2 nM with Plasmodium falciparum [5]. For the compound `CC1=C(C(=O)Nc2cccc(Cl)c2)C(c2ccc(OCc3cn(Cc4ccccc4)nn3)cc2)n2ncnc2N1` (configuration not stated), inhibition in the test on Plasmodium falciparum [1] was half-maximal at 2240 nM (IC50). As to `Cc1nc(-c2ccccc2)c(-c2ccccc2)c2cc(-c3cn(CCOC(=O)CCC(=O)O[C@@H]4O[C@@H]5O[C@]6(C)O[C@]57[C@@H](CC[C@@H](C)[C@@H]7C[C@H]6O)[C@H]4C)nn3)ccc12`, the EC50 was determined as 256 nM in the test on Plasmodium falciparum [3], 444 nM in the test with Plasmodium falciparum [4] and 646 nM in the test with Plasmodium falciparum [5]. On to `CC1=C(C(=O)Nc2ccccc2)C(c2ccc(OCc3cn(Cc4ccccc4)nn3)cc2)n2c(nc3ccccc32)N1` (configuration not stated), for which, in the test on Plasmodium falciparum [1], the IC50 was determined as 1660 nM.

In the case of `C[C@H]1[C@H](OC(=O)CCC(=O)OCCCCc2cn(-c3ccnc4cc(Cl)ccc34)nn2)O[C@@H]2O[C@@]3(C)CC[C@H]4[C@H](C)CC[C@@H]1[C@@]24OO3`, the half-maximal effective concentration (EC50) with Plasmodium falciparum [3] was found to be 2.5 nM; in the test on Plasmodium falciparum [4], 4.4 nM; with Plasmodium falciparum [5], 6.2 nM. `CC1=C(C(=O)Nc2ccc(C(F)(F)F)cc2)C(c2ccc(OCc3cn(Cc4ccccc4)nn3)cc2)n2c(nc3ccccc32)N1` (configuration not stated) came in with an IC50 in the test on Plasmodium falciparum [1] of 2860 nM. On the same count and under the same terms, for `CC1=C(C(=O)Nc2ccccc2)C(c2ccc(OCc3cn(Cc4ccccc4)nn3)cc2)n2ncnc2N1` (configuration not stated) the value was 3120 nM; for `CC1=C(C(=O)Nc2ccc(C)cc2)C(c2ccc(OCc3cn(Cc4ccccc4)nn3)cc2)n2c(nc3ccccc32)N1` (configuration not stated), 1920 nM; for `CC1=C(C(=O)Nc2cccc(Cl)c2)C(c2ccc(OCc3cn(Cc4ccccc4)nn3)cc2)n2c(nc3ccccc32)N1` (configuration not stated), 3120 nM. With `COc1ccc(COC(=O)Cn2cc(CSc3ccc(Br)cc3)nn2)cc1`, the IC50 in the test with Plasmodium falciparum [1] turned out to be 178 nM. Consider `CC1=C(C(=O)Nc2ccc(F)cc2)C(c2ccc(OCc3cn(Cc4ccccc4)nn3)cc2)n2ncnc2N1` (configuration not stated), for which, in the test with Plasmodium falciparum [1], the IC50 amounted to 4360 nM. The same measure, in the same setting: for `CC1=C(C(=O)Nc2ccc(Cl)cc2)C(c2ccc(OCc3cn(Cc4ccccc4)nn3)cc2)n2c(nc3ccccc32)N1` (configuration not stated) the value was 1690 nM. Consider `Cc1nc(-c2ccccc2)c(-c2ccccc2)c2cc(-c3cn(CCOC(=O)CCC(=O)O[C@@H]4O[C@@H]5O[C@@]6(C)CC[C@H]7[C@H](C)CC[C@@H]([C@H]4C)[C@@]57OO6)nn3)ccc12`, for which the results for the 50% effective concentration (EC50) with Plasmodium falciparum [3], in the test with Plasmodium falciparum [4] and in the test with Plasmodium falciparum [5] were 3.3 nM, 4.8 nM and 5.3 nM, respectively.

Consider `O=c1ccc2ccc(OCc3cn(-c4ccc(OCc5ccc(Br)cc5)cc4)nn3)cc2o1`, for which, in the test with Plasmodium falciparum [2], the half-inhibitory concentration (IC50) stood at 0.54 µg/mL (≈ 1.07 µM). On the same count and under the same terms, as for `O=c1ccc2ccc(OCc3cn(-c4ccc(OCc5ccc([N+](=O)[O-])cc5)cc4)nn3)cc2o1`, the figure is 1.2 µg/mL (≈ 2.55 µM). In the case of `O=c1ccc2ccc(OCc3cn(-c4ccc(OCc5ccc(Cl)cc5)cc4)nn3)cc2o1`, the concentration for half-maximal inhibition (IC50) with Plasmodium falciparum [2] was 0.86 µg/mL (≈ 1.87 µM). On to `Cc1cccc(COc2ccc(-n3cc(COc4cc(=O)oc5ccccc45)nn3)cc2)c1`, for which, in the test with Plasmodium falciparum [2], the IC50 turned out to be 1.05 µg/mL (≈ 2.39 µM).

Regarding `O=c1ccc2ccc(OCc3cn(-c4ccc(OCc5ccc(F)cc5)cc4)nn3)cc2o1`, the 50% inhibitory concentration (IC50) in the test on Plasmodium falciparum [2] was determined as 0.49 µg/mL (≈ 1.11 µM). `C[C@H]1[C@@H](OCCc2cn(-c3ccnc4cc(Cl)ccc34)nn2)O[C@@H]2O[C@@]3(C)CC[C@H]4[C@H](C)CC[C@@H]1[C@@]24OO3`: the concentration giving a half-maximal response (EC50) with Plasmodium falciparum [3] is 2 nM; with Plasmodium falciparum [4], 4.5 nM; in the test on Plasmodium falciparum [5], 8.8 nM.

As to `O=c1cc(OCc2cn(-c3ccc(OCc4ccccc4[N+](=O)[O-])cc3)nn2)c2ccccc2o1`, the IC50 with Plasmodium falciparum [2] was found to be 0.98 µg/mL (≈ 2.08 µM).

In turn, `CC1=C(C(=O)Nc2ccccc2C)C(c2ccc(OCc3cn(Cc4ccccc4)nn3)cc2)n2ncnc2N1` (configuration not stated) gave a 50% inhibitory concentration (IC50) in the test with Plasmodium falciparum [1] of 1860 nM. With `C[C@H]1[C@H](OC(=O)CCC(=O)OCc2cn(-c3ccnc4cc(Cl)ccc34)nn2)O[C@@H]2O[C@@]3(C)CC[C@H]4[C@H](C)CC[C@@H]1[C@@]24OO3`, in the test with Plasmodium falciparum [5], the EC50 turned out to be 5.3 nM. `C[C@H]1[C@H](OCc2cn(-c3ccnc4cc(Cl)ccc34)nn2)O[C@@H]2O[C@@]3(C)CC[C@H]4[C@H](C)CC[C@@H]1[C@@]24OO3`: the EC50 with Plasmodium falciparum [3] is 5.9 nM; in the test with Plasmodium falciparum [4], 10.6 nM; in the test on Plasmodium falciparum [5] it was 27.5 nM. In the same order, the values of `C[C@H]1[C@H](OC(=O)CCC(=O)OCCCc2cn(-c3ccnc4cc(Cl)ccc34)nn2)O[C@@H]2O[C@@]3(C)CC[C@H]4[C@H](C)CC[C@@H]1[C@@]24OO3` are 2.4 nM, 4.6 nM and 5.4 nM. `C[C@H]1[C@@H](OCCCn2cc(-c3ccnc4cc(Cl)ccc34)nn2)O[C@@H]2O[C@@]3(C)CC[C@H]4[C@H](C)CC[C@@H]1[C@@]24OO3`: the EC50 with Plasmodium falciparum [3] is 3.8 nM; with Plasmodium falciparum [4], 5.2 nM; in the test on Plasmodium falciparum [5] it was 9.4 nM. Turning to `C=C[C@H]1CN2CC[C@H]1C[C@H]2[C@H](O)c1ccnc2ccc(OC)cc12` [QUININE], the concentration for half-maximal inhibition (IC50) amounted to 0.268 µg/mL (≈ 0.826 µM) in the test on Plasmodium falciparum [2] and 83 nM with Plasmodium falciparum [1]. In the test with Plasmodium falciparum [1], `CC1=C(C(=O)Nc2ccccc2Cl)C(c2ccc(OCc3cn(Cc4ccccc4)nn3)cc2)n2c(nc3ccccc32)N1` (configuration not stated) had a half-maximal inhibitory concentration (IC50) of 2110 nM.

On to `O=C(Cn1cc(CSc2ccc(Br)cc2)nn1)OCc1ccc([N+](=O)[O-])cc1`, for which the 50% inhibitory concentration (IC50) with Plasmodium falciparum [1] is 184 nM. As for `CC1=C(C(=O)Nc2ccccc2Cl)C(c2ccc(OCc3cn(Cc4ccccc4)nn3)cc2)n2ncnc2N1` (configuration not stated), inhibition with Plasmodium falciparum [1] was half-maximal at 1680 nM (IC50).

As for `Cc1ccc(COc2ccc(-n3cc(COc4ccc5ccc(=O)oc5c4)nn3)cc2)cc1`, the IC50 in the test on Plasmodium falciparum [2] worked out at 0.38 µg/mL (≈ 0.865 µM). The compound `CC1=C(C(=O)Nc2ccc(C(F)(F)F)cc2)C(c2ccc(OCc3cn(Cc4ccccc4)nn3)cc2)n2ncnc2N1` (configuration not stated) yielded a concentration for half-maximal inhibition (IC50) in the test with Plasmodium falciparum [1] of 820 nM. As for `C[C@H]1[C@@H](OCCCCc2cn(-c3ccnc4cc(Cl)ccc34)nn2)O[C@@H]2O[C@@]3(C)CC[C@H]4[C@H](C)CC[C@@H]1[C@@]24OO3`, the EC50 with Plasmodium falciparum [3] was 3.7 nM; with Plasmodium falciparum [4], 6.1 nM; with Plasmodium falciparum [5] it was 8.4 nM. As to `CC1=C(C(=O)Nc2ccc(Cl)cc2)C(c2ccc(OCc3cn(Cc4ccccc4)nn3)cc2)n2ncnc2N1` (configuration not stated), the IC50 in the test on Plasmodium falciparum [1] is 1680 nM.

Take `C[C@H]1[C@H](OC(=O)CCC(=O)OCCc2cn(-c3ccnc4cc(Cl)ccc34)nn2)O[C@@H]2O[C@@]3(C)CC[C@H]4[C@H](C)CC[C@@H]1[C@@]24OO3`: the EC50 in the test on Plasmodium falciparum [3] was determined as 2.6 nM; in the test on Plasmodium falciparum [4], 4.9 nM; in the test with Plasmodium falciparum [5], 8 nM. Turning to `Cc1ccccc1COc1ccc(-n2cc(COc3cc(=O)oc4ccccc34)nn2)cc1`, the IC50 with Plasmodium falciparum [2] was 0.53 µg/mL (≈ 1.21 µM).

As to `C[C@H]1[C@@H](OCc2cn(-c3ccnc4cc(Cl)ccc34)nn2)O[C@@H]2O[C@@]3(C)CC[C@H]4[C@H](C)CC[C@@H]1[C@@]24OO3`, in the test on Plasmodium falciparum [5], the concentration for a half-maximal effect (EC50) was found to be 9 nM. `Clc1ccc2c(-n3cc(-c4ccccn4)nn3)ccnc2c1` returned an IC50 with Plasmodium falciparum [6] of 28000 nM. Regarding `CC1=C(C(=O)Nc2ccc(F)cc2)C(c2ccc(OCc3cn(Cc4ccccc4)nn3)cc2)n2c(nc3ccccc32)N1` (configuration not stated), the IC50 in the test with Plasmodium falciparum [1] was determined as 990 nM. In the test with Plasmodium falciparum [1], `CC1=C(C(=O)Nc2ccc(C)cc2)C(c2ccc(OCc3cn(Cc4ccccc4)nn3)cc2)n2ncnc2N1` (configuration not stated) yielded an IC50 of 1840 nM.

Source of the values: ChEMBL document CHEMBL5512597, “Triazole hybrid compounds: A new frontier in malaria treatment” (Eur J Med Chem, 2023).
